Experimental data taken from ChEMBL document CHEMBL1201862, “PubChem BioAssay data set” (2004).
Activity calls are given as the source filed them.

Columns and labels:
[1] = target: Adenosylmethionine-8-amino-7-oxononanoate aminotransferase (Mycobacterium tuberculosis, UniProt P9WQ81); test: Mycobacterium tuberculosis BioA enzyme inhibitor Measured in Biochemical System Using Plate Reader - 2163-02_Inhibitor_Dose_CherryPick_Activity.; format: functional, Mycobacterium tuberculosis UT205
[2] = target: Nonstructural protein 1 (Influenza A virus, UniProt Q194T2); format: functional, Influenza A virus (A/California/07/2009(H1N1))
Sequence of Nonstructural protein 1 (Q194T2 whole entry): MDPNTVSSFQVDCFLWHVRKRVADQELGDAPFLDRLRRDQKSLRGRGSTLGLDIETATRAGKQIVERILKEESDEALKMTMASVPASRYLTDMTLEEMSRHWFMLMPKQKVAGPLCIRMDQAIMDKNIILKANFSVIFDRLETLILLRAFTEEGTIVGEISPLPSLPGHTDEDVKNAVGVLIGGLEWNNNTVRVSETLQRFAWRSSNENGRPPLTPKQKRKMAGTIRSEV

[3] = target: Ras and Rab interactor 1/Tyrosine-protein kinase ABL1 (Homo sapiens, UniProt P00519+Q13671); format: functional;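 note: biochemical TR-FRET dose-response test measuring inhibition of binding between Rin1 and Abl proteins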
Sequence of Ras and Rab interactor 1/Tyrosine-protein kinase ABL1 (P00519 whole entry): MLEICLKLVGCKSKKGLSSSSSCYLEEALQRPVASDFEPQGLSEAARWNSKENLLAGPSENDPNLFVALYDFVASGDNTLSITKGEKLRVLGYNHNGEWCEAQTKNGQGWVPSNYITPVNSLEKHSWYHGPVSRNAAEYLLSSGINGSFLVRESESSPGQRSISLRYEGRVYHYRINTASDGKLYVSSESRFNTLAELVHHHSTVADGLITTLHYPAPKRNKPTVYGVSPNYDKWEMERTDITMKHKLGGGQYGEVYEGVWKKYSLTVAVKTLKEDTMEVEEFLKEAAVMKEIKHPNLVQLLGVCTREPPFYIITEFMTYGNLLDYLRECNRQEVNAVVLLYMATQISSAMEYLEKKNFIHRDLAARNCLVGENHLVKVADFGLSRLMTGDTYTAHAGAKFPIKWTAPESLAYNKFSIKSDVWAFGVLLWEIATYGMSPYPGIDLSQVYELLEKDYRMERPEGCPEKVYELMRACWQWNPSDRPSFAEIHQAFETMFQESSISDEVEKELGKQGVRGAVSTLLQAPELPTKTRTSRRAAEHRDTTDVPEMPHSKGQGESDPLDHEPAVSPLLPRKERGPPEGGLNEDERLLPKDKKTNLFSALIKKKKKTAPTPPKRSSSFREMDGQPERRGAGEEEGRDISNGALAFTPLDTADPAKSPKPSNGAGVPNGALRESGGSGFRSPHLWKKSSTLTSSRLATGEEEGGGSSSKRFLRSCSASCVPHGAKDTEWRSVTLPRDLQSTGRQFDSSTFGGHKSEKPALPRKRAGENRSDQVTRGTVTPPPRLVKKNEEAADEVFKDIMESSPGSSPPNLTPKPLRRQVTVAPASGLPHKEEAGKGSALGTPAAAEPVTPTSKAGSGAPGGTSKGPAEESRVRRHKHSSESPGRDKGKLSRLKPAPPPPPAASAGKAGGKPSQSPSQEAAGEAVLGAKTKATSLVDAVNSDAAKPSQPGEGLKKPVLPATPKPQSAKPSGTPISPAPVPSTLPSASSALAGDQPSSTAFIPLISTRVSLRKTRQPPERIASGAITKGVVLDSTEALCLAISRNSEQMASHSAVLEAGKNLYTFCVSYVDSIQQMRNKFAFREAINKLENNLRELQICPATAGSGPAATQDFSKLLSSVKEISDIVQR
Sequence of Ras and Rab interactor 1/Tyrosine-protein kinase ABL1 (Q13671 whole entry): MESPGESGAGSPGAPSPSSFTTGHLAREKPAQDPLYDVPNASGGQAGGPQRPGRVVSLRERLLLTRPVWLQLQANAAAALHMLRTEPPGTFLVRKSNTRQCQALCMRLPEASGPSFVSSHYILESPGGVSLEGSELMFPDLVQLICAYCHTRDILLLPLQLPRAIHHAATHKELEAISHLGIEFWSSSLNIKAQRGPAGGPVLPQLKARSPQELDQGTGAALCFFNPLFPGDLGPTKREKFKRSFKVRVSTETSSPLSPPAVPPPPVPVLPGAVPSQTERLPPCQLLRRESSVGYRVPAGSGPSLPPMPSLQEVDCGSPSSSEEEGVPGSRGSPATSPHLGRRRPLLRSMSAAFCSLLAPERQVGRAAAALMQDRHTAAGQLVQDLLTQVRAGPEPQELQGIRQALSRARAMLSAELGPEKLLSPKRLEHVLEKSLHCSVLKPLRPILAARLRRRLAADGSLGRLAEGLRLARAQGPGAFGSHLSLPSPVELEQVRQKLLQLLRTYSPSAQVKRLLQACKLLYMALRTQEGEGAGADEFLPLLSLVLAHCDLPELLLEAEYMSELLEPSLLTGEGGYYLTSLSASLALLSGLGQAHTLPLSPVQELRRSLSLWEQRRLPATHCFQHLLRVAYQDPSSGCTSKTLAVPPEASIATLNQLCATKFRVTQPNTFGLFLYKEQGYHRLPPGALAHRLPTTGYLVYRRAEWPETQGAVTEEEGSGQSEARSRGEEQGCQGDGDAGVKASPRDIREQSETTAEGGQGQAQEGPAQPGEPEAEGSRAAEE

[4] = target: T1, Histone-lysine N-methyltransferase NSD2 (Homo sapiens, UniProt O96028); format: biochemical
T1 sequence (O96028 whole entry): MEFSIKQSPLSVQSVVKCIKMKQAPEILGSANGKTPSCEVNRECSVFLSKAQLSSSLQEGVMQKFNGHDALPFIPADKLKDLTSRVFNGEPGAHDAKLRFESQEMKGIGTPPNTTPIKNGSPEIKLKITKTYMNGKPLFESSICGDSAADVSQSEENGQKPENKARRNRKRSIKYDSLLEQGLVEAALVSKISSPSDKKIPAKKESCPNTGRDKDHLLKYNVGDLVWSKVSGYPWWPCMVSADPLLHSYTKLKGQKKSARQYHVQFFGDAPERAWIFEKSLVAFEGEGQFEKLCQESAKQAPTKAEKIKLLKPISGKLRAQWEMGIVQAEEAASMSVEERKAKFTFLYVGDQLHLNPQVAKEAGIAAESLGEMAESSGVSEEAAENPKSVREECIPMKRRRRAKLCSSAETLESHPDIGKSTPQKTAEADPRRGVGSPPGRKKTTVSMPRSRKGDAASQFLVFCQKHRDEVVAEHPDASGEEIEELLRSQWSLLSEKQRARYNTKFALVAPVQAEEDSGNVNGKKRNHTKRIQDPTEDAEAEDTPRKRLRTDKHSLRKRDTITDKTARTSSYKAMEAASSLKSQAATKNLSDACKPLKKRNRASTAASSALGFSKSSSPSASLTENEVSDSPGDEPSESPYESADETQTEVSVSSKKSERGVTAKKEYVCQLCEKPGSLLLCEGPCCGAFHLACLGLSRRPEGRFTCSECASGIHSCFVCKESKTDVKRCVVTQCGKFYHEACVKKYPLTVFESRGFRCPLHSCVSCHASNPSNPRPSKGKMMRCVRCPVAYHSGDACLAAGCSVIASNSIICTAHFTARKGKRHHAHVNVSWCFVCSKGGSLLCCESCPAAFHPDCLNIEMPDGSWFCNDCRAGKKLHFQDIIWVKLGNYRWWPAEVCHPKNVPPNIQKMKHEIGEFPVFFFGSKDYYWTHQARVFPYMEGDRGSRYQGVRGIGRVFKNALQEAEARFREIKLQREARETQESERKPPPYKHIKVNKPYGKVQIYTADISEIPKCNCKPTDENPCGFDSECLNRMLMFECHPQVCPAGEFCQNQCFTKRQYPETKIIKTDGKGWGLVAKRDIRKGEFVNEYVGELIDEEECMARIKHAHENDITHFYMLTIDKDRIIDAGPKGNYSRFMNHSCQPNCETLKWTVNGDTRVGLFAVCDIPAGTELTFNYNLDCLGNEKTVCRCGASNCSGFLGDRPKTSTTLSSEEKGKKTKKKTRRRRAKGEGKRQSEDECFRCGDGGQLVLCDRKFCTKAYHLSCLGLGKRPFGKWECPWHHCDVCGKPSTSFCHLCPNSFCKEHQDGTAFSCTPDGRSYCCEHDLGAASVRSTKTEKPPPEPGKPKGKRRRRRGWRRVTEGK

[5] = target: T2, High affinity choline transporter 1 (Homo sapiens, UniProt Q9GZV3); test: CHT inhibitors, dose response, cell-based, 5-point CRC, membrane potential dye (AID 504840); format: functional
T2 sequence (Q9GZV3 whole entry): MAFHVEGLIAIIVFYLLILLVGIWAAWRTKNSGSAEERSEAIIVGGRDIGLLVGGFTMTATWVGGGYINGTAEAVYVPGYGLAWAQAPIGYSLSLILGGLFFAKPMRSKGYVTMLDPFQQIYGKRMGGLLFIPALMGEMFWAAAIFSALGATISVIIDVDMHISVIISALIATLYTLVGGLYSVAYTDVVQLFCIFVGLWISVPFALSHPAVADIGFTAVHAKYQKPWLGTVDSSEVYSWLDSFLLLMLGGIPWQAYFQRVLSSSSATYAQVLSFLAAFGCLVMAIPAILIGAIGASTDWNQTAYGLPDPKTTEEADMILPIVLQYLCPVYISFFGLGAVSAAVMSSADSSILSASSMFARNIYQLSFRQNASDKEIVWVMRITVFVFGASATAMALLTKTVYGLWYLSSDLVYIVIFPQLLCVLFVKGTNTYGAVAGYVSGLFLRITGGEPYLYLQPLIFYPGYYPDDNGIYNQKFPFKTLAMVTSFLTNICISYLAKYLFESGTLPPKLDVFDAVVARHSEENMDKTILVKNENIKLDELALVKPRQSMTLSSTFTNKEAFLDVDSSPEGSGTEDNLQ

[6] = target: T2, High affinity choline transporter 1; test: CHT inhibitors, dose response, cell-based, 10-point CRC, membrane potential dye (AID 588401); format: functional;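 note: membrane potential dye fluorescence of choline-evoked depolarization via CHT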
[7] = target: Tyrosine-protein phosphatase non-receptor type 11 (Homo sapiens, UniProt Q06124); test: SHP2 phosphatase inhibition, dose response, selectivity assay for STEP inhibitor project, biochemical (AID 602367); format: functional; settings: read-out: IC50_Mean
Sequence of Tyrosine-protein phosphatase non-receptor type 11 (Q06124 whole entry): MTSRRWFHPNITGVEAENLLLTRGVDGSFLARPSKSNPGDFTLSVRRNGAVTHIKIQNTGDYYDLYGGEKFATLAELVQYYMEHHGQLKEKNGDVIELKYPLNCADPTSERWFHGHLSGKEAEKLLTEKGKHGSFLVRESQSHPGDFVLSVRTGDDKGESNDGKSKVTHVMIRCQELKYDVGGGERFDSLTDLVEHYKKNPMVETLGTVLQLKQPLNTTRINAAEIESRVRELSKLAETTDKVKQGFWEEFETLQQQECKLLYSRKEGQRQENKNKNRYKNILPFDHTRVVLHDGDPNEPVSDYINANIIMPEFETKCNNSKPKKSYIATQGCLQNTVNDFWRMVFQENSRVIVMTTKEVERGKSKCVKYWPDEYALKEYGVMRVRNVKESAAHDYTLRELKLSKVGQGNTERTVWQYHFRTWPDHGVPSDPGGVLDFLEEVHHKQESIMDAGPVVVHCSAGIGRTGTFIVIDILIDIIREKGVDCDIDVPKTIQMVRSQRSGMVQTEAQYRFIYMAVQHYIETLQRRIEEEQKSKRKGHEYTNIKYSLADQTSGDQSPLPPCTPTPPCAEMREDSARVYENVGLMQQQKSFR

[8] = target: Tyrosine-protein phosphatase non-receptor type 5 (Homo sapiens, UniProt P54829); test: STEP phosphatase inhibitors, confirmation, biochemical, fluorescence intensity, uHTS hits (AID 602372); format: functional; settings: read-out: IC50_Mean
Sequence of Tyrosine-protein phosphatase non-receptor type 5 (P54829 whole entry): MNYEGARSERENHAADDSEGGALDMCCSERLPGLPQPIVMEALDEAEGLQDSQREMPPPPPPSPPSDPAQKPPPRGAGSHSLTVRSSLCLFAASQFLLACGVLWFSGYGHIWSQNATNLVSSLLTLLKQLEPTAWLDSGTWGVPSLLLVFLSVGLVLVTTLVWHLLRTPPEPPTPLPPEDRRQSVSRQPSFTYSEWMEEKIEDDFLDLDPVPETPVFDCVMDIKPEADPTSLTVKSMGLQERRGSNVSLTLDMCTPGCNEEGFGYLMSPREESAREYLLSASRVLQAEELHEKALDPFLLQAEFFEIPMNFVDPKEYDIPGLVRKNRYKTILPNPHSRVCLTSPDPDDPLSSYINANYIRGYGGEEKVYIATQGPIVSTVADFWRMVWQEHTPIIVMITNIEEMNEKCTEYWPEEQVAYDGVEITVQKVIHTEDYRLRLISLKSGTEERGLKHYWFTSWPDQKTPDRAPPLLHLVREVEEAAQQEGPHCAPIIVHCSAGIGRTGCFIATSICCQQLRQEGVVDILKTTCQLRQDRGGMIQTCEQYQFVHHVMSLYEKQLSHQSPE

[9] = target: Dual specificity protein phosphatase 3 (Homo sapiens, UniProt P51452); test: VHR phosphatase inhibition, dose response, selectivity assay for STEP inhibitor project, biochemical (AID 602374); format: functional; settings: read-out: IC50_Mean
Sequence of Dual specificity protein phosphatase 3 (P51452 whole entry): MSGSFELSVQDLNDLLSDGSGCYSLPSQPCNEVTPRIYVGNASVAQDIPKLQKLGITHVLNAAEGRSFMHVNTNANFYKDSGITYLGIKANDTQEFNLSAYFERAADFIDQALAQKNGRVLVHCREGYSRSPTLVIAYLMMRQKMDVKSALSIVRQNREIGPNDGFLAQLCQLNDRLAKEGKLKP

[10] = target: DNA repair and recombination protein RAD54-like (Homo sapiens, UniProt Q92698); test: inhibitors of human RAD54 branch migration, confirmation, biochemical, fluorescence, cherry-picked samples, dose series (AID 651657); format: functional
Sequence of DNA repair and recombination protein RAD54-like (Q92698 whole entry): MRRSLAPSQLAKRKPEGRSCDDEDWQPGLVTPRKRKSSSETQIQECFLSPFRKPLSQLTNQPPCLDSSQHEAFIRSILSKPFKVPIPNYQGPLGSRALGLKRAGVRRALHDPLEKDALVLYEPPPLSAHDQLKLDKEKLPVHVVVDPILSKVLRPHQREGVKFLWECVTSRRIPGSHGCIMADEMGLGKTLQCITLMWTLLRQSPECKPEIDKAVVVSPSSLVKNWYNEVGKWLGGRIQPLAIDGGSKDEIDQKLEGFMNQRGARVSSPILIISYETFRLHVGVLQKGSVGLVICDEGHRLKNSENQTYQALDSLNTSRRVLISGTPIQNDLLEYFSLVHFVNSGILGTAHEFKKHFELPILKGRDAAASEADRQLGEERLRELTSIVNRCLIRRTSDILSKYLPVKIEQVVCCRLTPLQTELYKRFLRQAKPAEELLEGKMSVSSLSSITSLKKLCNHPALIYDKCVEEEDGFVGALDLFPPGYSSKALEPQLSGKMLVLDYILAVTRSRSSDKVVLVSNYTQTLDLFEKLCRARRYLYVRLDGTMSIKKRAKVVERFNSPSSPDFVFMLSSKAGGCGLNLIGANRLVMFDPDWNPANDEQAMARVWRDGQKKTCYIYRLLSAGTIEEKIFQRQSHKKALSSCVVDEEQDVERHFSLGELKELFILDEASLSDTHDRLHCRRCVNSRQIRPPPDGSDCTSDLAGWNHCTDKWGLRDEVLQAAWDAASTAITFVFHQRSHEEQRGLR

[11] = target: T3, Replicative DNA helicase DnaB (Mycobacterium tuberculosis, UniProt P9WMR3); test: DnaB intein splicing inhibitors, dose response, biochemical, cell-free fluorescence (AID 449749); format: functional
T3 sequence (P9WMR3 whole entry): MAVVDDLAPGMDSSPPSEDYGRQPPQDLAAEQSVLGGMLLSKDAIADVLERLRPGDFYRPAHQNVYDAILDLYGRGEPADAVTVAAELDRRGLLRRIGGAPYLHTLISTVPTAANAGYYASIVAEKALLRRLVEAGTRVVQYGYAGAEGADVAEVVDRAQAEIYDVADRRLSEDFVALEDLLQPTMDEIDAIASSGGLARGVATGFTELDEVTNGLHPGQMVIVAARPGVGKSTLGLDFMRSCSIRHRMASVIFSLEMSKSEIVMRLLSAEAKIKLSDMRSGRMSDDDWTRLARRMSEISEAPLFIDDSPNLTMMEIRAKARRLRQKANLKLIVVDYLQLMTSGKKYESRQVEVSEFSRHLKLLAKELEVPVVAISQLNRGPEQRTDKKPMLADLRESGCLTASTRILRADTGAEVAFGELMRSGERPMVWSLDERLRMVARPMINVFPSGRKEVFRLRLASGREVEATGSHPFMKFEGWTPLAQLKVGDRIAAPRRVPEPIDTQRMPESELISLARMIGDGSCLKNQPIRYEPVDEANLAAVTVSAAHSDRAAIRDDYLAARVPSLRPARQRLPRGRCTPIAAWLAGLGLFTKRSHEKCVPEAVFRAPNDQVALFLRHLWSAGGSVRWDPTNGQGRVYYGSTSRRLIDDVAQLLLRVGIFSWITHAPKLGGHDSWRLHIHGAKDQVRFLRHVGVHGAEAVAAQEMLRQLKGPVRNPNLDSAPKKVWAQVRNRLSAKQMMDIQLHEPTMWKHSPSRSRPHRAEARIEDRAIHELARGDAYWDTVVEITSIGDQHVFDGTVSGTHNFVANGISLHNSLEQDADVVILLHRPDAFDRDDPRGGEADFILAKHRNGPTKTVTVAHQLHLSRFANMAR

[12] = target: T4, Apoptotic protease-activating factor 1 (Homo sapiens, UniProt O14727); format: functional
T4 sequence (O14727 whole entry): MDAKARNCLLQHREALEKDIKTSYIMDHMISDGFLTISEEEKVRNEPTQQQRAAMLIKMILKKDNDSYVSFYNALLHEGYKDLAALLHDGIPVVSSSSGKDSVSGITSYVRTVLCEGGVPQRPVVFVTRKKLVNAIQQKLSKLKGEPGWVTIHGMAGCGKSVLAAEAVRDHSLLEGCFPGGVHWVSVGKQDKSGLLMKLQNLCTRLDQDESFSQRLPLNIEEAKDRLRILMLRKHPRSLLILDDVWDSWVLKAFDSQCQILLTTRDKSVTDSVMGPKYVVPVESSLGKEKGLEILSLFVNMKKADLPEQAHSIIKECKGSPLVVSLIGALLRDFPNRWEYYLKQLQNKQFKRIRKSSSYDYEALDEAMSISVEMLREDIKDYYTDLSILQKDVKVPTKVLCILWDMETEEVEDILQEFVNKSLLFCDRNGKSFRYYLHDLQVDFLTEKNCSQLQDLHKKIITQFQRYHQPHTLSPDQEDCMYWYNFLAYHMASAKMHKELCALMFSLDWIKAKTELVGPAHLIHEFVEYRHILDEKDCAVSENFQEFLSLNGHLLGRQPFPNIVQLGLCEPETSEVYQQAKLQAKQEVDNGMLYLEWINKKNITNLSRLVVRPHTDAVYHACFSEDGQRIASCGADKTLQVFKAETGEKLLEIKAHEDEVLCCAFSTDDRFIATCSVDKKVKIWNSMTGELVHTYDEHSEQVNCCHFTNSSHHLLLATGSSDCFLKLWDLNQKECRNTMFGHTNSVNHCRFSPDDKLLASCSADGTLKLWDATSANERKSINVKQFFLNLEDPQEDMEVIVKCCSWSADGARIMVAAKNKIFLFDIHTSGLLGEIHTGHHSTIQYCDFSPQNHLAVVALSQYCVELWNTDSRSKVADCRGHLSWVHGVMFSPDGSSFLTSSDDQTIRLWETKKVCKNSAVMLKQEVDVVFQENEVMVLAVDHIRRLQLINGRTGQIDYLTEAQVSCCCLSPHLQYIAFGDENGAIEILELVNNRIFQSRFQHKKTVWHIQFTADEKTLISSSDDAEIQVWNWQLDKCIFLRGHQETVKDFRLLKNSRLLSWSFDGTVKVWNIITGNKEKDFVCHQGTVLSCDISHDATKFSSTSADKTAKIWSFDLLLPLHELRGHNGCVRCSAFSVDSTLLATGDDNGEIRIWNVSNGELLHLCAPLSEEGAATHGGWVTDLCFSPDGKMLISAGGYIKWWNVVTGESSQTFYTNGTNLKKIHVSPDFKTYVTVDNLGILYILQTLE

[13] = target: T5, Protein RecA (Mycobacterium tuberculosis, UniProt P9WHJ3); test: Fluorescence Cell-Free Homogeneous Dose Retest to Identify Inhibitors of RecA-Intein Splicing Activity. [Related pubchem assays (depositor defined):AID2097, AID2223, AID489010, AID492950]; format: functional
T5 sequence (P9WHJ3 whole entry): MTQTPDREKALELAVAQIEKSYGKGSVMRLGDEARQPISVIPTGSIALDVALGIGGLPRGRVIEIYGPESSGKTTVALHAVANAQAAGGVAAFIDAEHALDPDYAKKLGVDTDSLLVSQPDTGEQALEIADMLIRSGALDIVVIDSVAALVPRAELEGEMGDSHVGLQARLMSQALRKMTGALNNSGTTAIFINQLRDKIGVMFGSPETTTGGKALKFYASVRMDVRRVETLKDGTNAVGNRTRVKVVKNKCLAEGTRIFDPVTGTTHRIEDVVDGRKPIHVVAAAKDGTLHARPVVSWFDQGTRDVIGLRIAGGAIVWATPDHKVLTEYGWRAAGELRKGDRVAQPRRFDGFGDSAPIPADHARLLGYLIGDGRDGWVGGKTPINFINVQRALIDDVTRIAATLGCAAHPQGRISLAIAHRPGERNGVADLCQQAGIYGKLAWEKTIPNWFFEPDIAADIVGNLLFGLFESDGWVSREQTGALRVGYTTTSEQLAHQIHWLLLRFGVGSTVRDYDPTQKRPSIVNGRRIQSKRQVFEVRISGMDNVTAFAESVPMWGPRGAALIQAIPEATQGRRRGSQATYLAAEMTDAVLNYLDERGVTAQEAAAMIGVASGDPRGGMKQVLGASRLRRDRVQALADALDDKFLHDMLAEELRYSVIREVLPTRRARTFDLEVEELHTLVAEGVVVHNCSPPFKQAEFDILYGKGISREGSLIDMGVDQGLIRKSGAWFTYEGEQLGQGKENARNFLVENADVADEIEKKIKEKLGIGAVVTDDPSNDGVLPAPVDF

Sequence of Adenosylmethionine-8-amino-7-oxononanoate aminotransferase (P9WQ81 whole entry): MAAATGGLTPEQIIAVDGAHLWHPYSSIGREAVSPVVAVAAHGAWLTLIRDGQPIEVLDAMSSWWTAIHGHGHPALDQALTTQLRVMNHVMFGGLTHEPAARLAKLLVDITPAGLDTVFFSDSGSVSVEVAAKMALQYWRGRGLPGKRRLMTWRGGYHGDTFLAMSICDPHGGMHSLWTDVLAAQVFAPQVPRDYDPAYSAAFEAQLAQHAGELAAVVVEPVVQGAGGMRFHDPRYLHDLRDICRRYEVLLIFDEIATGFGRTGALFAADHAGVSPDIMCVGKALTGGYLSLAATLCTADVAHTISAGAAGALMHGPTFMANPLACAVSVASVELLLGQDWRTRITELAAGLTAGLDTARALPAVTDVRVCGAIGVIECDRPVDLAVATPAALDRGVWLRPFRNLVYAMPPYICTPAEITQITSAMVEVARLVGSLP

`CCOC(=O)c1ccc(N2C(=O)c3[nH]nc(C)c3C2c2ccc(OC)c(OC)c2)cc1` (stereo unspecified) was tested, and the AC50 [1] was 0.128 µM (active).

For `Cc1ccc(NC(=O)CCCCCC2NC(=O)NC2C)cc1` (stereo unspecified), the IC50 [2] was 1.06 µM (active), the IC50 [3] was 0.0145 µM (active) and the AC50 [4] was 0.358 µM (active).

With `N#Cc1nc(Cc2cccc3ccccc23)oc1NCCCN1CCOCC1` the IC50 [5] was 3.8 µM (active) and the IC50 [6] was 1.58 µM (active).

In the case of `COc1ccc(NC(=O)c2cc(=O)c3ccccc3o2)cc1Cl`, the IC50 [7] is reported as 2.82 µM (active), the IC50 [8] is reported as > 80 µM (inactive) and the IC50 [9] is reported as 4.6 µM (active).

`O=C(Nc1cccnc1)c1cc2nc(C3CC3)cc(C(F)(F)F)n2n1` was tested, and the AC50 [1] was 0.144 µM (active).

`CNc1nc(SC)nc2ccsc12` was tested, and the IC50 [5] was 0.743 µM (active) and the IC50 [6] was 1.5 µM (active).

For `CCN1CCN(c2cc(C)c3cc(NC(S)=NCCN(C)C)ccc3n2)CC1`, the AC50 [10] was 24.3 µM (active).

`COc1ccc(S(=O)(=O)/N=C2\C=C(NS(=O)(=O)c3ccccc3)C(=O)c3ccccc32)cc1` was tested, and the AC50 [11] was 1.89 µM (active), the IC50 [12] was 16.6 µM (active) and the EC50 [13] was 1.58 µM (active).
